The results in this text go back to patent US20150152064A1, “METHODS AND COMPOSITIONS OF TREATING A FLAVIVIRIDAE FAMILY VIRAL INFECTION” (The Board of Trustees of the Leland Stanford Junior …, priority 2007, published 2015).

This data set in a line: in vitro. To be noted: human, huh-7.5 cells. It counts as cell-based. The protocol: Luciferase assays are performed at about 48 hr to about 72 hr or 96 hr.
After a 5-30 min recovery at about 25° C., pulsed cells are diluted into 2-25 ml of prewarmed growth medium. […] Untreated cells are used as a negative control for water soluble compounds. […] Medium is changed daily.
Following about 48, about 72, or about 96 hrs of treatment, cells are incubated for 1-5 hrs at about 37° C. in the presence of 1-20% Alamar Blue reagent (TREK Diagnostic Systems).

Structures are written as SMILES.

As to `Cc1ccc(Cn2ncc3ccccc32)cc1` [Compound 185], the viability at 5 µM was no less than 90% and the viability at 10 µM is no less than 90%.
